From article doi:10.1101/2020.05.05.078071v1 (biorxiv, 2020)

What was measured:
[1] = target: rNaV1.4 (Rattus norvegicus, UniProt P15390); assay: whole-cell patch clamp, three pulse train; assay type: cell-based
[2] = target: rNaV1.4 (Rattus norvegicus, UniProt P15390, F1579A); assay: whole-cell patch clamp, three pulse train; assay type: cell-based
Chain of rNaV1.4 (Rattus norvegicus, UniProt P15390, F1579A) (P15390 whole entry F1579A): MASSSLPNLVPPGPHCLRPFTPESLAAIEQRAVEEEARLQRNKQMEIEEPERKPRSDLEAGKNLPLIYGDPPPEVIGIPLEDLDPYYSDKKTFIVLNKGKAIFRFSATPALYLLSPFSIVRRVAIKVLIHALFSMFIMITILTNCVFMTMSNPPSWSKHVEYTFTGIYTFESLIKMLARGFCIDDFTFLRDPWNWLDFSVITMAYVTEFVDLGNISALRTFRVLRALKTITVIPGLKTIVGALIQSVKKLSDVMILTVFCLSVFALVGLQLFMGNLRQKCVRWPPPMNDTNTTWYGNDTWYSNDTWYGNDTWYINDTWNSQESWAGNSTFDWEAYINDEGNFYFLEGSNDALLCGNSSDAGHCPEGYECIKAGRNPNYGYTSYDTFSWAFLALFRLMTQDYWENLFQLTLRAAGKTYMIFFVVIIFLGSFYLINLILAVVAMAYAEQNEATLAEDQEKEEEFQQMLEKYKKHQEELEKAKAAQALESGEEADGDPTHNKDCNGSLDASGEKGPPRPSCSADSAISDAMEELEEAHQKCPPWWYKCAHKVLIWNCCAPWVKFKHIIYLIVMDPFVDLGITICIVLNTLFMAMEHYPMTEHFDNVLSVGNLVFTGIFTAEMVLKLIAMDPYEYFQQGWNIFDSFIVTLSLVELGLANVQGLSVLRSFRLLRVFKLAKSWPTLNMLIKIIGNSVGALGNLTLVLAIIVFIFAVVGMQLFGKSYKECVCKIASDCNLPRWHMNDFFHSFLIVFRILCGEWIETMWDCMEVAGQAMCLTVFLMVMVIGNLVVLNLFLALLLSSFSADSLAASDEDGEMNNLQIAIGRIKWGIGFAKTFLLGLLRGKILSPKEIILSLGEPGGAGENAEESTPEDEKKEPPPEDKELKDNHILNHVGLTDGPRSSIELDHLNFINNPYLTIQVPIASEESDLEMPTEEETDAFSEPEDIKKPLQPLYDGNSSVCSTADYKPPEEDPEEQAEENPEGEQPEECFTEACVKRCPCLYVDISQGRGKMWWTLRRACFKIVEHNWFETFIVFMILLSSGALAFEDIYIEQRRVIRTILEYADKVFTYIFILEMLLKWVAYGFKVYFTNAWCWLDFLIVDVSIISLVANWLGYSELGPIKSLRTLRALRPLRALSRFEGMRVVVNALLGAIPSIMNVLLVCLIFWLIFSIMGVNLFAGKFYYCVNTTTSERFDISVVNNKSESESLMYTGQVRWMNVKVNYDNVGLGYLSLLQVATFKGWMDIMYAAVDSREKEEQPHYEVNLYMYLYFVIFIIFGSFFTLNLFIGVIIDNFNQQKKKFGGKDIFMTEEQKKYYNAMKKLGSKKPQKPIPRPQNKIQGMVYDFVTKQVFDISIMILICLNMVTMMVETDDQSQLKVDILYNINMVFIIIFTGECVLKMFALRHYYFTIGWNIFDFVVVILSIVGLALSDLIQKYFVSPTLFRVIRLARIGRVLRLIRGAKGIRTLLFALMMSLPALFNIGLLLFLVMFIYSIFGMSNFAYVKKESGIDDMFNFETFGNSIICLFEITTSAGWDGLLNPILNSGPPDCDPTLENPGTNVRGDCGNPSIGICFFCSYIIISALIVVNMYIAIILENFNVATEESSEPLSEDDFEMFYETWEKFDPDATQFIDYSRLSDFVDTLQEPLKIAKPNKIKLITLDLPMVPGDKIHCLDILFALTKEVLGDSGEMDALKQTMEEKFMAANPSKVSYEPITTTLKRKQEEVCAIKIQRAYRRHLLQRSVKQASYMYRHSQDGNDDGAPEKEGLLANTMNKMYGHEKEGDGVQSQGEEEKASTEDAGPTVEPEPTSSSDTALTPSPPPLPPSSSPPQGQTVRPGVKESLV

Chain of rNaV1.4 (Rattus norvegicus, UniProt P15390) (P15390 whole entry): as the sequence (P15390 whole entry F1579A) above, with A1579F counted along it

IC50 [1]: 3.98 ± 1.32 µM | IC50 [2]: 114 ± 20 µM
SMILES: Nc1nc2ccc(OC(F)(F)F)cc2s1 [riluzole]
